Test results: ChEMBL document CHEMBL1149347, “Fatty acid synthase inhibitory activity of acylphloroglucinols isolated from Dryopteris crassirhizoma” (Bioorg Med Chem Lett, 2006)

Each compound was assayed against T1, Fatty acid synthase (Homo sapiens, UniProt P49327) (assay: Inhibition of FAS).
Target sequence in this assay (P49327 whole entry): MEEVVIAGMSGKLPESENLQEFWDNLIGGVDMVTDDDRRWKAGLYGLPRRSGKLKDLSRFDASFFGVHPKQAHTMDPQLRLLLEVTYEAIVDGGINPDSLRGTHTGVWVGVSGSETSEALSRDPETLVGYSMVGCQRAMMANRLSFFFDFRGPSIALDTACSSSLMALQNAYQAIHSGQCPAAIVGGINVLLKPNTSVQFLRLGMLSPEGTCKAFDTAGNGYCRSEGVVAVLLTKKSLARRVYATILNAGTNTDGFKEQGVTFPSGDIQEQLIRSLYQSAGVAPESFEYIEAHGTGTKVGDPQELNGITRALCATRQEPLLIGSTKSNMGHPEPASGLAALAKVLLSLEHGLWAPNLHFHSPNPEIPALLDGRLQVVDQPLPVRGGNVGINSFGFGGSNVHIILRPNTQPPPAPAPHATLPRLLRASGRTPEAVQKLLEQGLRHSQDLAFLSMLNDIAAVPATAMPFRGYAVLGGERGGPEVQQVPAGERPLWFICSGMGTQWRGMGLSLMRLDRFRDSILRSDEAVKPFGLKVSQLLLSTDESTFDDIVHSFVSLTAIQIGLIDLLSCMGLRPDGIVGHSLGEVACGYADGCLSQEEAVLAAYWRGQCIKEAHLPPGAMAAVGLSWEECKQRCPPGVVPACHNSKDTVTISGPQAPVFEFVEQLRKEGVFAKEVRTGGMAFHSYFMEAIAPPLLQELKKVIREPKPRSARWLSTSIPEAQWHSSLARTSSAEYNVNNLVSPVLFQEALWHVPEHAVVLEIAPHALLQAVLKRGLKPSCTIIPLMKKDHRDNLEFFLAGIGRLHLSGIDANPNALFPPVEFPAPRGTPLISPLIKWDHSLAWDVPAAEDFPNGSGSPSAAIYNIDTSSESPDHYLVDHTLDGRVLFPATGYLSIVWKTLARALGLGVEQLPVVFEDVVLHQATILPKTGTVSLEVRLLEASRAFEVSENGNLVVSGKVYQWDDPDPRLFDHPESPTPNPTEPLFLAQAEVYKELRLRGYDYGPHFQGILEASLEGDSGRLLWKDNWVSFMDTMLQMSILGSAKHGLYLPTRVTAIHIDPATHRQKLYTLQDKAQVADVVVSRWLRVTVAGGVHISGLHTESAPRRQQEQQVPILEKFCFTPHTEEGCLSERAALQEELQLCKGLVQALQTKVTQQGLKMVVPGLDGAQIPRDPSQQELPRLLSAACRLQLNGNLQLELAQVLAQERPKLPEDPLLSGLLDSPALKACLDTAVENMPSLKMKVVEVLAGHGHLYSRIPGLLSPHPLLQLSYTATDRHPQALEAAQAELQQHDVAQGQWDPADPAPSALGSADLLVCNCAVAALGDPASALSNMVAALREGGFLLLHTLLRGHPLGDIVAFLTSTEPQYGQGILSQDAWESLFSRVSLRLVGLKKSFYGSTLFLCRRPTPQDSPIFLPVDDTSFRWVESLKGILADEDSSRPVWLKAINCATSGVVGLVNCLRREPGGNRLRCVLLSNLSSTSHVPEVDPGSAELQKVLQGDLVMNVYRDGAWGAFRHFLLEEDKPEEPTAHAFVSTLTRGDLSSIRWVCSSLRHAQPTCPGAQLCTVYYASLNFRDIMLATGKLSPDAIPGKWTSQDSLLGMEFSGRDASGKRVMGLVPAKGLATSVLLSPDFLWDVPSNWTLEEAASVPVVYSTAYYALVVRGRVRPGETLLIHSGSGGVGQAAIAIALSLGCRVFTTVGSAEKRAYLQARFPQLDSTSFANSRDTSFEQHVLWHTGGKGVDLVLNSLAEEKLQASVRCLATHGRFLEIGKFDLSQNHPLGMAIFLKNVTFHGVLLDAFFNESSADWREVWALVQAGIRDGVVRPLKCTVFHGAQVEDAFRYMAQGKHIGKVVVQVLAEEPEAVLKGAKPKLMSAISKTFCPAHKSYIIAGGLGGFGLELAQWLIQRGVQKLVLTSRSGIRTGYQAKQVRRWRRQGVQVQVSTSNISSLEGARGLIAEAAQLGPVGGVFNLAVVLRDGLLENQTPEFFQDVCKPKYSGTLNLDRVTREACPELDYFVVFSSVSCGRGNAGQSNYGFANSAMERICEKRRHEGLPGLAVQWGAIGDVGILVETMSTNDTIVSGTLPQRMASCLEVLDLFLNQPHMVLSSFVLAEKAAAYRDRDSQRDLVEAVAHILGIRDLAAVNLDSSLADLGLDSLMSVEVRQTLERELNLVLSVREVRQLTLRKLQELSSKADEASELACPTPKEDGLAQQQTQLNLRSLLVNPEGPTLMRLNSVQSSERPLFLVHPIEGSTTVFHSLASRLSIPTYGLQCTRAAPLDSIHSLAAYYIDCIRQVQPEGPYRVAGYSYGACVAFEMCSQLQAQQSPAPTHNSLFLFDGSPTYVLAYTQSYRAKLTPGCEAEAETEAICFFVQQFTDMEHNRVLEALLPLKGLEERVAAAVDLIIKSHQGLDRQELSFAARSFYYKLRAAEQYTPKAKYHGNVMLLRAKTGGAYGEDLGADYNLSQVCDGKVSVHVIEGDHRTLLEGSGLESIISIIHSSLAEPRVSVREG

SMILES	IC50 [µM]
C/C=C/C/C=C/CCC(=O)[C@H]1O[C@H]1C(N)=O [CERULENIN]	13
CCCC(=O)C1=C(OC)C(C)C(O)=C(CC2=C(O)C(C)(C)C(O)=C(C(=O)CCC)C2=O)C1=O (stereo unspecified)	32.6
Oc1cc(O)c2c(c1)O[C@H](c1ccc(O)c(O)c1)[C@H](O)C2 [(-)-EPICATECHIN]	> 100
CCCC(=O)C1=C(O)C(C)(C)C(O)=C(CC2=C(O)C(C)(C)C(O)=C(C(=O)CC)C2=O)C1=O	56.1
CCC(=O)C1=C(O)C(C)(C)C(O)=C(CC2=C(O)C(C)(C)C(O)=C(C(=O)CC)C2=O)C1=O	60.2
O=c1cc(-c2ccc(O)c(O)c2)oc2cc(O)cc(O)c12 [LUTEOLIN]	62.5
CCCC(=O)c1c(O)cc(OC)c(C)c1O	49.1
CCCC(=O)c1c(O)c(CC2=C(O)C(C)(C)C(O)=C(C(C)=O)C2=O)c(O)c(CC2=C(O)C(C)(C)C(O)=C(C(=O)CC)C2=O)c1O	31
O=c1c(O)c(-c2ccccc2)oc2ccccc12 [FLAVONOL]	> 100
CCC(=O)C1=C(O)C(C)(C)C(O)=C(CC2=C(O)C(C)(C)C(O)=C(C(C)=O)C2=O)C1=O	71.7

Continued by falling IC50, values first:

IC50 [µM]	SMILES
29.7	CCCC(=O)C1=C(O)CC(O)=C(CC2=C(O)C(C)(C)C(O)=C(C(C)=O)C2=O)C1=O
28.7	CCCC(=O)C1=C(O)C(C)C(O)=C(CC2=C(O)C(C)(C)C(O)=C(C(C)=O)C2=O)C1=O (stereo unspecified)
25.4	CCCC(=O)c1c(O)c(C)c(O)c(Cc2c(O)c(C)c(O)c(C(=O)CCC)c2O)c1O
23.1	CCCC(=O)C1=C(O)C(C)C(O)=C(CC2=C(O)C(C)(C)C(O)=C(C(=O)CC)C2=O)C1=O (stereo unspecified)

Each compound was assayed against T1, Fatty acid synthase (assay: Inhibition of FAS at 100 uM).
Target sequence in this assay (P49327 whole entry, looked up): as the sequence (P49327 whole entry) above

SMILES	inhibition [%]
Oc1cc(O)c2c(c1)O[C@H](c1ccc(O)c(O)c1)[C@H](O)C2 [(-)-EPICATECHIN]	10.2
O=c1c(O)c(-c2ccccc2)oc2ccccc12 [FLAVONOL]	6.5
